Values of other authors in patent publication US6815453B1, “Cosmetic and dermatological light protection formulations having a content of triazine derivatives and glyceryl compounds” (Beiersdorf AG, priority 1996, dated 2004).

corresponding dissolved, and therefore active, UV filter substance (corresponding to the maximum solubility in known solvents): 1-1.5 % by weight
maximum amount of the filter dissolved by known solvents (known solvents for this UVB filter, prior-art statement): ≤ 15 % by weight
solubility in lipids (stated in words as the main disadvantage): poor solubility in lipids
SMILES: CCCCC(CC)COC(=O)c1ccc(Nc2nc(Nc3ccc(C(=O)OCC(CC)CCCC)cc3)nc(Nc3ccc(C(=O)OCC(CC)CCCC)cc3)n2)cc1 (stereo not drawn) [UVINUL® T 150, 4,4′,4″-(1,3,5-triazine-2,4,6-triyltriimino)-trisbenzoic acid tris(2-ethylhexyl ester)]
